Values of other authors as cited in patent US20080160083A1, “COMPOSITION AND METHOD FOR TREATMENT OF PREMENSTRUAL SYMPTOMS” (priority 2007, published 2008).

Experiments:
[1] = women taking daily vitamin B6 supplements for PMS whose blood levels of B6 were above normal; Dalton, Lancet 1985
[2] = all adults; Institute of Medicine 1998

- neuropathy present (number of women) [1]: 23 of 58
Structure (SMILES): Cc1ncc(CO)c(CO)c1O [vitamin B6, 4,5-bis(hydroxymethyl)-2-methylpyridin-3-ol]
- upper tolerable intake level (UL) [2]: 100 mg per day
